Data taken from patent publication US9493446B2, “Orexin receptor antagonists which are [ortho bi-(hetero-)aryl]-[2-(meta bi-(hetero-)aryl)-pyrrolidin-1-yl]-methanone derivatives” (Actelion Pharmaceuticals Ltd, priority 2012, dated 2016).
Read-outs that look alike come from different tables or passages of the source.

How the values were obtained:
human orexin-2 receptor = human orexin-2 receptor (Homo sapiens (Human), UniProt O43614); test: Intracellular calcium measurement (FLIPR), CHO cells expressing human orexin-2 receptor, 3 nM orexin-A; assay type: cell-based; conditions: CHO cells expressing human orexin-2 receptor, FLIPR, 3 nM orexin-A; geometric mean if determined several times; read-out: IC50 OX2
Procedure, shortened: (§1)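 Antagonist is added 120 min before agonist. Fluo-4 AM-loaded CHO cells carry human orexin-1 or orexin-2 receptor, and calcium is read by FLIPR.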

orexin-1 = orexin-1 (Homo sapiens (Human), UniProt O43613); test: Intracellular calcium measurement (FLIPR), CHO cells expressing human orexin-1 receptor, 3 nM orexin-A; assay type: cell-based; conditions: read-out: IC50 OX1
Procedure, shortened: as §1

[1] = CHO cells expressing human orexin-1 receptor, FLIPR, 3 nM orexin-A, geometric mean if determined several times

human orexin-2 receptor, sequence (O43614 whole entry): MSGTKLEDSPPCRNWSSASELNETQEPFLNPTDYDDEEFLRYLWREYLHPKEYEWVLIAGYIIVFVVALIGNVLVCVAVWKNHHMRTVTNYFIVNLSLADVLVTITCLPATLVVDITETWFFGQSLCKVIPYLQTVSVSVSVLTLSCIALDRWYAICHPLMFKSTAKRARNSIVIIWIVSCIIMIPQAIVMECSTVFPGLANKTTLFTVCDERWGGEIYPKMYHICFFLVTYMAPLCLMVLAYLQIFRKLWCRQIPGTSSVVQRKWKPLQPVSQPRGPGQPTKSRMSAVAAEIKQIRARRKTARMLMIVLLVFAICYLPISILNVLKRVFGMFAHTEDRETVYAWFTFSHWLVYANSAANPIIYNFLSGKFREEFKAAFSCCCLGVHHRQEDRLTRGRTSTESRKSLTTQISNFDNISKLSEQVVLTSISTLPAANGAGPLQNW
orexin-1, sequence (O43613 whole entry): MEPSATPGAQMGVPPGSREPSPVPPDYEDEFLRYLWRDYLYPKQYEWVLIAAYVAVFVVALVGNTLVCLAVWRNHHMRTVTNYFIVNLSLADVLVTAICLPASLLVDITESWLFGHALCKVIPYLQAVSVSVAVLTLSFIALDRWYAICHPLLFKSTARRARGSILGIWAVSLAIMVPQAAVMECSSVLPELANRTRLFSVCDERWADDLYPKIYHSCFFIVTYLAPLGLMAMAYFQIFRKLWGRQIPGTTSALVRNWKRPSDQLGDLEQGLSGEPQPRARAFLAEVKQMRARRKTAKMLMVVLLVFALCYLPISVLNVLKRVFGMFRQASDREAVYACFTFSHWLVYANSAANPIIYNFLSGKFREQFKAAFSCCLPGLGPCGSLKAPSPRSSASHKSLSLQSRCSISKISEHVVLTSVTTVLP

SMILES | IC50 (human orexin-2 receptor) | IC50 (orexin-1; [1]) | IC50 (orexin-1)
O=C(c1ccccc1-n1nccn1)N1CCC[C@H]1c1nc(-c2ccccc2C(F)(F)F)no1 [compound 178, (2-[1,2,3]Triazol-2-yl-phenyl)-{(S)-2-[3-(2-trifluoromethyl-phenyl)-[1,2,4]oxadiazol-5-yl]-pyrrolidin-1-yl}-methanone] | 132 nM | 549 nM | –
O=C(c1cc(Cl)ccc1-n1nccn1)N1CCC[C@H]1c1nc(-c2ccccc2C(F)(F)F)no1 [compound 179] | 189 nM | – | 371 nM
Cc1ccc(C(=O)N2CCC[C@H]2c2nc(-c3ccccc3C(F)(F)F)no2)c(-n2nccn2)c1 [compound 180, (4-Methyl-2-[1,2,3]triazol-2-yl-phenyl)-{(S)-2-[3-(2-trifluoromethyl-phenyl)-[1,2,4]oxadiazol-5-yl]-pyrrolidin-1-yl}-methanone] | 126 nM | 183 nM | –
Cc1cc(C(=O)N2CCC[C@H]2c2nc(-c3ccccc3C(F)(F)F)no2)c(-n2nccn2)cc1C [compound 181, (4,5-Dimethyl-2-[1,2,3]triazol-2-yl-phenyl)-{(S)-2-[3-(2-trifluoromethyl-phenyl)-[1,2,4]oxadiazol-5-yl]-pyrrolidin-1-yl}-methanone] | 37 nM | 86 nM | –
COc1cc(C(=O)N2CCC[C@H]2c2nc(-c3ccccc3C(F)(F)F)no2)c(-n2nccn2)cc1C [compound 182, (5-Methoxy-4-methyl-2-[1,2,3]triazol-2-yl-phenyl)-{(S)-2-[3-(2-trifluoromethyl-phenyl)-[1,2,4]oxadiazol-5-yl]-pyrrolidin-1-yl}-methanone] | 29 nM | 276 nM | –
O=C(c1cccc(F)c1-c1ccn[nH]1)N1CCC[C@H]1c1nc(-c2ccccc2C(F)(F)F)no1 [compound 183, [3-Fluoro-2-(2H-pyrazol-3-yl)-phenyl]-{(S)-2-[3-(2-trifluoromethyl-phenyl)-[1,2,4]oxadiazol-5-yl]-pyrrolidin-1-yl}-methanone] | 91 nM | 190 nM | –
Cc1ccc(-c2ccccn2)c(C(=O)N2CCC[C@H]2c2nc(-c3ccccc3C(F)(F)F)no2)c1 [compound 184, (5-Methyl-2-pyridin-2-yl-phenyl)-{(S)-2-[3-(2-trifluoromethyl-phenyl)-[1,2,4]oxadiazol-5-yl]-pyrrolidin-1-yl}-methanone] | 133 nM | 311 nM | –
O=C(c1ccccc1-n1nccn1)N1CCC[C@H]1c1nc(-c2ccccc2OC(F)F)no1 [compound 185, {(S)-2-[3-(2-Difluoromethoxy-phenyl)-[1,2,4]oxadiazol-5-yl]-pyrrolidin-1-yl}-(2-[1,2,3]triazol-2-yl-phenyl)-methanone] | 75 nM | 523 nM | –
O=C(c1cc(Cl)ccc1-n1nccn1)N1CCC[C@H]1c1nc(-c2ccccc2OC(F)F)no1 [compound 186] | 17 nM | 138 nM | –
Cc1ccc(C(=O)N2CCC[C@H]2c2nc(-c3ccccc3OC(F)F)no2)c(-n2nccn2)c1 [compound 187, {(S)-2-[3-(2-Difluoromethoxy-phenyl)-[1,2,4]oxadiazol-5-yl]-pyrrolidin-1-yl}-(4-methyl-2-[1,2,3]triazol-2-yl-phenyl)-methanone] | 31 nM | 79 nM | –
Cc1cc(C(=O)N2CCC[C@H]2c2nc(-c3ccccc3OC(F)F)no2)c(-n2nccn2)cc1C [compound 188, {(S)-2-[3-(2-Difluoromethoxy-phenyl)-[1,2,4]oxadiazol-5-yl]-pyrrolidin-1-yl}-(4,5-dimethyl-2-[1,2,3]triazol-2-yl-phenyl)-methanone] | 3 nM | 20 nM | –
COc1cc(C(=O)N2CCC[C@H]2c2nc(-c3ccccc3OC(F)F)no2)c(-n2nccn2)cc1C [compound 189, {(S)-2-[3-(2-Difluoromethoxy-phenyl)-[1,2,4]oxadiazol-5-yl]-pyrrolidin-1-yl}-(5-methoxy-4-methyl-2-[1,2,3]triazol-2-yl-phenyl)-methanone] | 5 nM | 47 nM | –
O=C(c1cccc(F)c1-c1ccn[nH]1)N1CCC[C@H]1c1nc(-c2ccccc2OC(F)F)no1 [compound 190, {(S)-2-[3-(2-Difluoromethoxy-phenyl)-[1,2,4]oxadiazol-5-yl]-pyrrolidin-1-yl}-[3-fluoro-2-(2H-pyrazol-3-yl)-phenyl]-methanone] | 14 nM | 53 nM | –
Cc1ccc(-c2ccccn2)c(C(=O)N2CCC[C@H]2c2nc(-c3ccccc3OC(F)F)no2)c1 [compound 191, {(S)-2-[3-(2-Difluoromethoxy-phenyl)-[1,2,4]oxadiazol-5-yl]-pyrrolidin-1-yl}-(5-methyl-2-pyridin-2-yl-phenyl)-methanone] | 27 nM | 119 nM | –
COc1c(F)cccc1-c1noc([C@@H]2CCCN2C(=O)c2cc(C)cc(C)c2-n2nccn2)n1 [compound 192, (3,5-Dimethyl-2-[1,2,3]triazol-2-yl-phenyl)-{(S)-2-[3-(3-fluoro-2-methoxy-phenyl)-[1,2,4]oxadiazol-5-yl]-pyrrolidin-1-yl}-methanone] | 15 nM | 135 nM | –
COc1c(F)cccc1-c1noc([C@@H]2CCCN2C(=O)c2ccccc2-n2nccn2)n1 [compound 193, {(S)-2-[3-(3-Fluoro-2-methoxy-phenyl)-[1,2,4]oxadiazol-5-yl]-pyrrolidin-1-yl}-(2-[1,2,3]triazol-2-yl-phenyl)-methanone] | 25 nM | 263 nM | –
COc1c(F)cccc1-c1noc([C@@H]2CCCN2C(=O)c2ccc(C)cc2-n2nccn2)n1 [compound 195, {(S)-2-[3-(3-Fluoro-2-methoxy-phenyl)-[1,2,4]oxadiazol-5-yl]-pyrrolidin-1-yl}-(4-methyl-2-[1,2,3]triazol-2-yl-phenyl)-methanone] | 11 nM | 71 nM | –
COc1c(F)cccc1-c1noc([C@@H]2CCCN2C(=O)c2cc(C)c(C)cc2-n2nccn2)n1 [compound 196, (4,5-Dimethyl-2-[1,2,3]triazol-2-yl-phenyl)-{(S)-2-[3-(3-fluoro-2-methoxy-phenyl)-[1,2,4]oxadiazol-5-yl]-pyrrolidin-1-yl}-methanone] | 2 nM | 10 nM | –
COc1c(F)cccc1-c1noc([C@@H]2CCCN2C(=O)c2cccc(C)c2-n2nccn2)n1 [compound 197, {(S)-2-[3-(3-Fluoro-2-methoxy-phenyl)-[1,2,4]oxadiazol-5-yl]-pyrrolidin-1-yl}-(3-methyl-2-[1,2,3]triazol-2-yl-phenyl)-methanone] | 93 nM | 354 nM | –
COc1ccc(-n2nccn2)c(C(=O)N2CCC[C@H]2c2nc(-c3cccc(F)c3OC)no2)c1 [compound 199, {(S)-2-[3-(3-Fluoro-2-methoxy-phenyl)-[1,2,4]oxadiazol-5-yl]-pyrrolidin-1-yl}-(5-methoxy-2-[1,2,3]triazol-2-yl-phenyl)-methanone] | 12 nM | 83 nM | –
COc1c(F)cccc1-c1noc([C@@H]2CCCN2C(=O)c2cc(F)ccc2-n2nccn2)n1 [compound 200, {(S)-2-[3-(3-Fluoro-2-methoxy-phenyl)-[1,2,4]oxadiazol-5-yl]-pyrrolidin-1-yl}-(5-fluoro-2-[1,2,3]triazol-2-yl-phenyl)-methanone] | 32 nM | 307 nM | –
